Measurements taken from patent US12172988B2, “Anticancer and antifungal splice modulators” (priority 2021, dated 2024).
Where two headings read alike, the source gives them in different places.

Tests used:
[1] = test system: HCT116 colorectal carcinoma cells; assay: MTS cell viability / cell growth inhibition assay; type: cell-based, human; details: for cell growth inhibitory activity compared to FD-895: HCT-116 cells; for GI50: Homo sapiens, HCT-116, 72 h
Description: With milligram quantities of 1a-1i at hand, we began our studies to evaluate the relative efficacy of each analogue using cell growth inhibition studies in HCT116 colorectal carcinoma cells. As reported in FIG. 3, GI50 values were collected for each analog after a 72 h treatment using the MTS cell viability assay (Table 12). Under these conditions, the natural FD-895 (1), 3S-FD-895 (1a) 17S-FD-895 (1d), 17-methoxy-FD-895 (1e) provided activities of <10 nM.
HCT-116 cells was cultured in McCoy's 5a (Life Technologies) supplemented with 10% fetal bovine serum (FBS), 2 mM L-glutamine, and 100 U mL^−1 of penicillin and 100 μg mL^−1 of streptomycin at 37° C. in an atmosphere of 5% CO2. Compounds were dissolved in DMSO (MilliporeSigma). Cells were treated with 1-1j in media with ≥0.5% DMSO for 4-72 h.
Studies were conducted in […] cell culture plates. HCT-116 plated at 5×10^3 cells/well were cultured for 24 h and then treated with analogs 1-1j for 4-72 h, then washed twice with 100 μL PBS. PBS (100 μL) was added to each well, followed by 20 μL of CellTiter Aqueous One Solution (Promega). After 2 h at 37° C., absorbance readings were taken at 490 nm (test wavelength) and 690 nm (reference wavelength). GI50 values were calculated in Prism (GraphPad) using greater 3 replicates.
(§1) Cells were treated with 1 or 1a-1j in media (McCoy's 5a (Life Technologies) supplemented with 10% FBS, 2 mM L-glutamine, and 100 U mL^−1 of penicillin and 100 μg mL^−1 of streptomycin 0.5% DMSO) for 4 h or 24 h. Untreated cells were considered were used as negative control. Total RNA was isolated using mirVana miRNA isolation kit (Life Technologies). A 1 μg sample of RNA was subjected to DNAseI from a TURBO DNA free kit (Life Technologies). The cDNA was prepared by using SuperScript III reverse transcriptase kit (Life Technologies). The amount of unspliced RNA for different genes was determined using Power SYBR Green PCR master mix (Applied Biosystems) by qPCR using specific primers for each gene. qPCR using 2.5 μM of each primer was performed on 5 ng of the obtained cDNA. qPCR conditions were as follows: 95° C. for 10 min for one cycle, then 95° C. for 10 min for one cycle, then 95° C. for 30 s, 55° C. for 60 s, 72° C. for 60 s, for 40 cycles using the MXPro. Quantification cycle (Cq) values were identified for each sample, and then RNA levels were calculated using 2-ΔΔCT method. GAPDH was used as a control for normalization. At least three replicates were conducted for each compound. Namely, all genes explored in this study were evaluated from the same cell cultures. Here, individual cultures were used for each compound explored and at least three replicates were used for each compound. While experimental variation occurred between the different compound treatments, the levels of the different intron retention, exon skipping or RNA expression were collected from the same cellular material. Statistics were calculated using a standard one-way ANOVA; p values were represented so that * signifies p<0.0001. HCT116 were treated with analogs 1-1j ranging from 0.1-5000 nM for 72 hours, then cell viability was measured using the MTS assay. GI50 values and confidence intervals were calculated using GraphPad (Table 12).

PLK-1 = assay: qPCR splicing analysis, PLK-1 exon skipping / RNA expression; type: cell-based, human; details: HCT116, 4 h, 20 times GI50, qPCR
Description: (§2) HCT116 tumor cells were treated with each analogue at 20 times the G150 value (Table 12) for 4 hours and then cellular RNA was isolated and purified for qPCR. Primers were designed to evaluate intron retention or exon skipping, direct responses to splice modulator treatment. Genes evaluated included those involved in splicing regulation (SF3A1, SF3A3, SF3B1, SF3B2), apoptosis (MCL-1L), protein folding (DNAJB1), and cell cycle regulation (AURKA, PLK-1) relative to the unspliced control GAPDH. For alternative splicing regulator (SF2), primers were designed to evaluate gene expression, which changes in response splice modulator treatment for SF2 relative to the unspliced control GAPDH. (−) denotes untreated cells.
(§3) Next, we turned our efforts to explore the ability of these analogues to modulate splicing. […] We treated cells for 4 h so that we could evaluate early changes in splicing activity, and then cellular RNA was isolated and purified for analyses by qPCR (FIG. 14). Most importantly, none of the concentrations tested led to significant changes in cell viability, ensuring that changes in gene expression were not due to cell death.
(§4) For these studies, we evaluated the expression of genes involved in splicing regulation (SF3A1, SF3A3, SF3B1, SF3B2), apoptosis (MCL-1L), protein folding (DNAJB1), and cell cycle regulation (AURKA, PLK-1) relative to the unspliced control GAPDH. Primers were designed to evaluate intron retention or exon skipping, direct responses to splice modulator treatment. The master splicing regulator alternative splicing factor (SF2) was also evaluated, with the primers for this gene designed to evaluate overall gene expression, which changes in response to splice modulator treatment.
(§5) From this 4 h study (FIG. 14), a small set of analogs (1, 1b, 1g, 1d, 1e, 1i and 1j) were selected to evaluate if effects on splicing when presented for a longer 24 h period. […] Using identical procedures as that used for 4 h, HCT116 cells were treated with three concentrations (100 nM, 250 nM and 500 nM) of each analog for 24 h. Multiple concentrations were used as a means to check further validate the use of the GI50 concentration in our prior study (FIG. 14). As before, none of the concentrations tested led to significant changes in cell viability over the 24-hour time window, ensuring that changes in gene expression were not due to cell death.
Cells were treated with 1 or 1a-1j in media (McCoy's 5a (Life Technologies) supplemented with 10% FBS, 2 mM L-glutamine, and 100 U mL^−1 of penicillin and 100 μg mL^−1 of streptomycin 0.5% DMSO) for 4 h or 24 h. Untreated cells were considered were used as negative control. Total RNA was isolated using mirVana miRNA isolation kit (Life Technologies). A 1 μg sample of RNA was subjected to DNAseI from a TURBO DNA free kit (Life Technologies). […] The amount of unspliced RNA for different genes was determined using Power SYBR Green PCR master mix (Applied Biosystems) by qPCR using specific primers for each gene. qPCR using 2.5 μM of each primer was performed on 5 ng of the obtained cDNA. qPCR conditions were as follows: 95° C. for 10 min for one cycle, then 95° C. for 10 min for one cycle, then 95° C. for 30 s, 55° C. for 60 s, 72° C. for 60 s, for 40 cycles using the MXPro. Quantification cycle (Cq) values were identified for each sample, and then RNA levels were calculated using 2-ΔΔCT method. […] Namely, all genes explored in this study were evaluated from the same cell cultures. […]

SF2 = assay: qPCR gene expression of alternative splicing factor SF2; type: cell-based, human; details: HCT116, 4 h, 20 times GI50, qPCR
Description: as §2
as §2, with “analogues” for “each analogue”, “100 nM (light grey), 250 nM (grey), or 500 nM (black)” for “20 times the G150 value (Table 12)”, “24 h” for “4 hours”, “(MCL-1L), and” for “(MCL-1L),”, “(DNAJB1),” for “(DNAJB1), and cell cycle regulation (AURKA, PLK-1)”, “(—)” for “(−)”
as §3, §4
From this 4 h study (FIG. 14), a small set of analogs (1, 1b, 1g, 1d, 1e, 1i and 1j) were selected to evaluate if effects on splicing when presented for a longer 24 h period. […] Using identical procedures as that used for 4 h, HCT116 cells were treated with three concentrations (100 nM, 250 nM and 500 nM) of each analog for 24 h. […]

HCT116 tumor cells = assay: qPCR structure-splicing profile over the gene panel; type: cell-based, human; details: HCT116, 24 h, 100, 250, 500 nM, compared to 1
Description: as §2, with “analogues” for “each analogue”, “100 nM (light grey), 250 nM (grey), or 500 nM (black)” for “20 times the G150 value (Table 12)”, “24 h” for “4 hours”, “(MCL-1L), and” for “(MCL-1L),”, “(DNAJB1),” for “(DNAJB1), and cell cycle regulation (AURKA, PLK-1)”, “(—)” for “(−)”
as §4, §5, §1

[2] = estimated, based on E7107; cited from earlier work
DNAJB1 = assay: qPCR splicing analysis, DNAJB1 intron retention; type: cell-based, human; details: HCT116, 4 h, 20 times GI50, qPCR relative to GAPDH
Description: as §2
as §2, with “analogues” for “each analogue”, “100 nM (light grey), 250 nM (grey), or 500 nM (black)” for “20 times the G150 value (Table 12)”, “24 h” for “4 hours”, “(MCL-1L), and” for “(MCL-1L),”, “(DNAJB1),” for “(DNAJB1), and cell cycle regulation (AURKA, PLK-1)”, “(—)” for “(−)”
as §3, §4, §5
(§6) Cells were treated with 1 or 1a-1j in media (McCoy's 5a (Life Technologies) supplemented with 10% FBS, 2 mM L-glutamine, and 100 U mL^−1 of penicillin and 100 μg mL^−1 of streptomycin 0.5% DMSO) for 4 h or 24 h. Untreated cells were considered were used as negative control. Total RNA was isolated using mirVana miRNA isolation kit (Life Technologies). […]

SF3A1 = assay: qPCR splicing analysis, SF3A1 intron retention; type: cell-based, human; details: HCT116, 4 h, 20 times GI50, qPCR relative to GAPDH
Description: as §2
as §2, with “analogues” for “each analogue”, “100 nM (light grey), 250 nM (grey), or 500 nM (black)” for “20 times the G150 value (Table 12)”, “24 h” for “4 hours”, “(MCL-1L), and” for “(MCL-1L),”, “(DNAJB1),” for “(DNAJB1), and cell cycle regulation (AURKA, PLK-1)”, “(—)” for “(−)”
as §3, §4, §5
as §6, with “Technologies). A 1 μg sample of RNA was subjected to DNAseI from a TURBO DNA free kit (Life Technologies). The cDNA was prepared by using SuperScript III reverse transcriptase kit (Life Technologies).” for “Technologies).”

AURKA = assay: qPCR splicing analysis, AURKA exon skipping / expression; type: cell-based, human; details: HCT116, 4 h, 20 times GI50, qPCR
Description: as §2
Next, we turned our efforts to explore the ability of these analogues to modulate splicing. […] We treated cells for 4 h so that we could evaluate early changes in splicing activity, and then cellular RNA was isolated and purified for analyses by qPCR (FIG. 14). […]
as §4, with “Primers were designed to evaluate intron retention or exon skipping, direct responses to splice modulator treatment.” left out, “treatment. […]” for “treatment.”
Cells were treated with 1 or 1a-1j in media (McCoy's 5a (Life Technologies) supplemented with 10% FBS, 2 mM L-glutamine, and 100 U mL^−1 of penicillin and 100 μg mL^−1 of streptomycin 0.5% DMSO) for 4 h or 24 h. […] The amount of unspliced RNA for different genes was determined using Power SYBR Green PCR master mix (Applied Biosystems) by qPCR using specific primers for each gene. qPCR using 2.5 μM of each primer was performed on 5 ng of the obtained cDNA. qPCR conditions were as follows: 95° C. for 10 min for one cycle, then 95° C. for 10 min for one cycle, then 95° C. for 30 s, 55° C. for 60 s, 72° C. for 60 s, for 40 cycles using the MXPro. […]

SF3B2 = assay: qPCR splicing analysis, SF3B2 intron retention; type: cell-based, human; details: HCT116, 4 h, 20 times GI50, qPCR relative to GAPDH
Description: as §2
as §2, with “analogues” for “each analogue”, “100 nM (light grey), 250 nM (grey), or 500 nM (black)” for “20 times the G150 value (Table 12)”, “24 h” for “4 hours”, “(MCL-1L), and” for “(MCL-1L),”, “(DNAJB1),” for “(DNAJB1), and cell cycle regulation (AURKA, PLK-1)”, “(—)” for “(−)”
as §3, §4, §5
as §6, with “Technologies). A 1 μg sample of RNA was subjected to DNAseI from a TURBO DNA free kit (Life Technologies). The cDNA was prepared by using SuperScript III reverse transcriptase kit (Life Technologies).” for “Technologies).”

Row | Structure (SMILES) | cell growth inhibitory activity compared to FD-895 [1] | effect on exon 3 inclusion in PLK-1 (PLK-1) | down regulating the expression of SF2 RNA (SF2) | splicing activity over the genes tested (HCT116 tumor cells) | human maximum tolerated dose (MTD) [2] [mg/m^2] | GI50 ([1]; read-out: GI50 value) [nM] | GI50 ([1]; read-out: GI50 value (text)) [nM] | DNAJB1 intron 2 retention (level of intron retention) (DNAJB1) | SF3A1 intron 6 retention (level of intron retention) (SF3A1) | effect on exon 4 skipping in AURKA (AURKA) | fold less active (GI50) than 1 ([1]; HCT116 cell growth inhibition, compared to 1) [fold] | SF3B2 intron retention (level of intron retention) (SF3B2)
1 | CCC(OC)C(C)C1OC1C(O)C(C)/C=C/C=C(\C)C1OC(=O)CC(O)CCC(C)(O)C(OC(C)=O)/C=C/C1C (centres unmarked) [Analog 1, FD-895, reference compound] | potent cell growth inhibitor | most potent effect | highest efficacy | altered the splicing of many of the genes tested | 4 | – | – | – | – | – | – | –
2 | CC[C@H](OC)[C@@H](C)[C@H]1O[C@@H]1[C@H](O)[C@H](C)/C=C/C=C(\C)[C@H]1OC(=O)C[C@H](O)CC[C@@](C)(O)[C@@H](OC(C)=O)/C=C/[C@@H]1C [Analog 1, FD-895, reference compound] | – | – | – | – | – | 1.72 | – | – | – | – | – | –
3 | CC[C@H](OC)[C@@H](C)[C@H]1O[C@@H]1[C@H](O)[C@H](C)/C=C/C=C(\C)[C@H]1OC(=O)C[C@@H](O)CC[C@@](C)(O)[C@@H](OC(C)=O)/C=C/[C@@H]1C [Analog 1a, 3S-FD-895] | compromised activity | – | – | – | – | 2.21 | < 10 | highest level of intron retention | more effective than 1 | most potent effect | – | –
4 | CC[C@H](OC)[C@@H](C)[C@H]1O[C@@H]1[C@H](O)[C@H](C)/C=C/C=C(\C)[C@H]1OC(=O)C[C@H](O)CC[C@@](C)(O)[C@H](OC(C)=O)/C=C/[C@@H]1C [Analog 1b, 7R-FD-895] | compromised activity | – | – | loss of splicing activity when compared to 1 | – | 432 | – | – | – | – | 250 | improved efficacy
